Laboratory results published in ChEMBL document CHEMBL1139221, “2-(4-Chlorobenzyl)-3-hydroxy-7,8,9,10-tetrahydrobenzo[H]quinoline-4-carboxylic acid (PSI-697): identification of a clinical candidate from the quinoline salicylic acid series of P-selectin antagonists” (J Med Chem, 2007).
pIC50: −log10 of the molar value. Values after ≈ are worked out from the molar mass of the structure shown.

Tests used:
P-selectin = target: T1, P-selectin (Homo sapiens, UniProt P16109); assay: Inhibition of P-Selectin by Biacore assay
T1 sequence (P16109 whole entry): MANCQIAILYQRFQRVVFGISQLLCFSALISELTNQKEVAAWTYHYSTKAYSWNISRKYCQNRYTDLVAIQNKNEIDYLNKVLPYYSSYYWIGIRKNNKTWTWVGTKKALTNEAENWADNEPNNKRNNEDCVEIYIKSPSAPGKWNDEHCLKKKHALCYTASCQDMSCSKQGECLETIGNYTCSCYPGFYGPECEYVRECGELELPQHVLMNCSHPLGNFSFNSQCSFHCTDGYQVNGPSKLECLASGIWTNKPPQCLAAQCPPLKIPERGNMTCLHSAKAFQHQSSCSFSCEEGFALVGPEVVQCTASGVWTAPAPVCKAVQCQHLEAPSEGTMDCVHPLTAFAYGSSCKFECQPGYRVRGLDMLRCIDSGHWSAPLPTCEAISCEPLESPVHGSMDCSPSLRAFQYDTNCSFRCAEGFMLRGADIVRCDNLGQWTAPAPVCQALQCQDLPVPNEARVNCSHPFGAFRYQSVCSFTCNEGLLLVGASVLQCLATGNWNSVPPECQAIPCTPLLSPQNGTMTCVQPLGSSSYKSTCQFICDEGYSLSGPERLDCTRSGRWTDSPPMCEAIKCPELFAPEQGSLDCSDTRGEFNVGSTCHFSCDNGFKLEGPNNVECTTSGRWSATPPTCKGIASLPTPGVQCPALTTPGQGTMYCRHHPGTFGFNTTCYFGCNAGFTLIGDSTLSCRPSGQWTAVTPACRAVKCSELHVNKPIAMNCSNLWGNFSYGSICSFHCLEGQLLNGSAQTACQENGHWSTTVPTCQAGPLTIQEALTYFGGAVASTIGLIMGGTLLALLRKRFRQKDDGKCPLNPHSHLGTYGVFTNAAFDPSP

[1] = Stability in rat liver microsome; type: ADME; details: liver microsomes
Rattus norvegicus [2] = organism: Rattus norvegicus; assay: AUC in Sprague-Dawley rat; type: ADME, organism-based, Plasma; details: in vivo
Mus musculus [3] = organism: Mus musculus; assay: AUC in C57 mouse; type: ADME, organism-based, Plasma; details: in vivo
[4] = Bioavailability in C57 mouse; type: ADME, organism-based; details: in vivo
[5] = Bioavailability in Sprague-Dawley rat; type: ADME, organism-based; details: in vivo
[6] = Oral bioavailability in Beagle dog at 15 mg/kg; type: ADME, organism-based, Canis lupus familiaris; details: in vivo
[7] = Inhibition of leukocyte rolling in mouse at 50 mg/kg, po; type: functional
Rattus norvegicus [8] = assay: Inhibition of neointimal hyperplasia in Sprague-Dawley rat carotid ballon injury model at 30 mg/kg, po; type: functional
Mus musculus [9] = assay: Inhibition of aortic lesion in apo E -/- mouse model at 100 mg/kg; type: functional; details: Aorta
[10] = Solubility at pH 7.4; type: physicochemical; details: buffer

SMILES	pIC50 (P-selectin)	half-life [1]	AUC/dose (Rattus norvegicus [2])	AUC/dose (Mus musculus [3])	bioavailability [4]	bioavailability [5]	bioavailability [6]	solubility [10]	inhibition in vivo at 50 mg/kg [7]	inhibition in vivo at 30 mg/kg (Rattus norvegicus [8])	inhibition in vivo at 100 mg/kg (Mus musculus [9])
O=C(O)c1c(O)c(Cc2c[nH]c3ccccc23)nc2c3c(ccc12)CCCC3	3.65		0.607 µg·h/mL	0.218 µg·h/mL	30%	41%			62%		
O=C(O)c1c(O)c(Cc2c[nH]c3ccc(Cl)cc23)nc2c(C(F)(F)F)cccc12	3.60								23%		
O=C(O)c1c(O)c(Cc2c[nH]c3ccc(Cl)cc23)nc2c3c(ccc12)CCCC3	3.76		0.096 µg·h/mL			5%		20 µg/mL (≈ 49.2 µM)			

Now those with a higher pIC50 (P-selectin), led by results:

pIC50 (P-selectin)	half-life [1]	AUC/dose (Rattus norvegicus [2])	AUC/dose (Mus musculus [3])	bioavailability [4]	bioavailability [5]	bioavailability [6]	solubility [10]	SMILES	inhibition in vivo at 50 mg/kg [7]	inhibition in vivo at 30 mg/kg (Rattus norvegicus [8])	inhibition in vivo at 100 mg/kg (Mus musculus [9])
3.91	6 min							O=C(O)c1c(O)c(Cc2ccccc2Cl)nc2c3c(ccc12)CCCC3			
3.90		0.62 µg·h/mL	1.5 µg·h/mL	100%	20%	58%		O=C(O)c1c(O)c(Cc2ccc(Cl)cc2)nc2c3c(ccc12)CCCC3 [PSI-697]	56%	40%	49%
3.86	6 min							O=C(O)c1c(O)c(Cc2cccc(Cl)c2)nc2c3c(ccc12)CCCC3			
